Results taken from patent publication US6187906A, “Methods to improve neural outcome” (Aukland Uniservices Limited, priority 1998, dated 2001).

What was measured:
[1] = tested on: hypoxic-ischemic injury to one cerebral hemisphere; test: Hypoxic-ischemic injury in adult rats, IGF-1 vs MK801 (Experiment 1); type: in vivo, Wistar rats; conditions: 50 μg IGF-1 intraventricular and/or 1 mg MK801, 2 hours after hypoxia; histology at 120 hours; controls 65%
Experimental: Adult Wistar rats (68 280-320 g) were prepared under 3% halothane/O2 anaesthesia. The right side carotid artery was ligated. A guide cannula was placed on the dura 8.2 mm anterior from bregma and 1.4 mm from midline on the right. The rats were allowed to recover from anaesthesia for 1 hour and were then placed in an incubator with humidity 85±5% and temperature 34±0.5° C. for 1 hour before hypoxia. Oxygen concentration was reduced and maintained at 6±0.2 O2 % hypoxia for 10 minutes. […] The intraventricular injections of 50 μg IGF-1 or vehicle alone were made into the right lateral ventricle at 1 μl/minute under 1.5%-2% halothane anaesthetic. Rats in each treatment group were infused simultaneously. The rats had free access to food during experiment and were euthanized at 120 hours after hypoxia with overdose of sodium pentobarbitol. Briefly, the brain was perfused in-situ with FAM (Formaldehyde, Acetic Acid, Methanol 1:1:8) then paraffin embedded. The sections were stained with Thionin and Acid Fuchsin. The presence of cortical infarction, defined as a region of tissue death or parenchymal pan-necrosis due to death of glia as well as neurons, was determined via light microscopy by an assessor who was blinded to the experimental groupings.

ischemic brain injury = test: Ischemic brain injury in fetal sheep, postischemic seizures and neuronal loss (Experiment 2); type: in vivo
Text: The objective of this study was to compare the effects of treatment either with IGF-1 (see FIG. 2) and previously published work with the NMDA antagonist […] after an ischemic brain injury on postischemic seizures and neuronal losses in fetal sheep. (Tan et al Ann Neurol 32:677-682 (1992)).
The methods were those of an earlier study (Tan et al Ann Neurol 32:677-682 (1992)). Briefly, late gestation fetal sheep were chronically instrumented to record EEG, nuchal activity and blood pressure, and were then returned to the uterus. Cortical EEG activity nuchal activity and blood pressure were recorded throughout he experiment and the fetal brain subjected to 30 minutes of ischemia. Two hours later they were treated by an infusion of either 1 μg IGF-1 (n=6) or vehicle (artificial CSF) (n=6) into the lateral ventricle. Five days later the brains were fixed and assessed for neuronal loss as described previously (Tan et al Ann Neurol 32:677-682 (1992)).
In all cases the vehicle is the left-hand column and the effects of 1 μg of IGF-1 is on the right.

| Compound | incidence of cortical infarction [1] [%] | neuronal rescue (neuronal loss scores) (ischemic brain injury; 1 μg IGF-1 into lateral ventricle 2 hours after 30 minutes of ischemia, assessed five days later) | postischemic seizure activity (ischemic brain injury; 1 μg IGF-1 into lateral ventricle 2 hours after ischemia) |
| --- | --- | --- | --- |
| C[C@]12N[C@H](Cc3ccccc31)c1ccccc12 [MK801, reference compound] | 50 |  |  |
| insulin-like growth factor 1 [IGF-1] | 33 | rescued neurons | did not suppress |
